Measurements reported in patent publication US20110178072A1, “STEREOSPECIFICITY OF METHYLSULFINYL REDUCTION” (priority 2008, published 2011).

Assays:
mouse MsrA = target: T1, mouse MsrA (Mus musculus, UniProt Q9D6Y7); assay: Reduction of methylsulfinyl compounds by mouse MsrA (HPLC/GC analysis); format: biochemical
T1 sequence (Q9D6Y7 21-233): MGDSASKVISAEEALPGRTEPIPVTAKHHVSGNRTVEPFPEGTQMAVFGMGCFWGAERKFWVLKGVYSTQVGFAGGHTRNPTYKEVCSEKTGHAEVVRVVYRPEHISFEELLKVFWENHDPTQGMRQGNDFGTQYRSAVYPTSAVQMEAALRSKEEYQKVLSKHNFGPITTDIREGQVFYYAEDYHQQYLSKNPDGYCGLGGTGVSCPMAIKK
Experimental: (§1) The isothiocyanate group in R,S-sulforaphane reacts with sulfhydryls to form conjugated compounds. First, the compound was treated with excess DTT (which has two free sulfhydryl groups) to conjugate the isothiocyanate group of R,S-sulforaphane or S-sulforaphane with the sulfhydryl group of DTT and the resulting adducts were then used as substrates for mouse MsrA and mouse MsrB2. The reduction of the DTT-sulforaphane adduct was analyzed using HPLC analysis of the adduct with buffer (as control; FIG. 12A), mouse MsrB2 (FIG. 12B), and mouse MsrA (FIG. 12C). The arrows indicate the migration of the DTT-erucin adduct. […] FIG. 13 illustrates the HPLC analysis of the DTT-R-sulforaphane adduct incubated with buffer (as control) (FIG. 13A), mouse MsrA (FIG. 13B), and mouse MsrB2 (FIG. 13C). Again, the arrows show the migration of the DTT-erucin adduct.
(§2) Mesoridazine, which has a mild effect on treating schizophrenia, was examined to determine its reduction by yeast fRMsr, mouse MsrB2, and mouse MsrA (FIG. 14). The peak of m/z 387.6 corresponds to the molecular weight of mesoridazine and the peak of m/z 371.6 corresponds to the molecular weight of thioridazine. FIG. 14B details the HPLC analysis of mesoridazine incubated with mouse MsrB2 and DTT. FIG. 14C provides the HPLC analysis of mesoridazine incubated with yeast fRMsr and DTT. FIG. 14D illustrates the specific activities of various Msrs for the reduction of mesoridazine (left to right): mouse MsrA in the presence of DTT as a reductant, mouse MsrA in the presence of the thioredoxin reducing system, mouse MsrB2 in the presence of DTT, and yeast fRMsr in the presence of DTT.
(§3) The reduction of triclabendazole sulfoxide was examined. This compound has been used to treat liver fluke, Fasciola hepatica and Fasciola gigantica, in sheep, goat, and cattle as a form of triclabendazole. Triclabendazole can be metabolized to several different forms including triclabendazole sulfoxide, which is an oxidized form of methylsulfide group, in biological systems. FIG. 15A provides an HPLC analysis of triclabendazole sulfoxide incubated with mouse MsrA and DTT. The peak of m/z 375.2 and 377.2 correspond to the molecular weight of triclabendazole sulfoxide and the peak of m/z 359.2 and 361.2 correspond to the molecular weight of triclabendazole. FIG. 15B illustrates an HPLC analysis of triclabendazole sulfoxide incubated with mouse MsrB2 and DTT. FIG. 15C details an HPLC analysis of triclabendazole sulfoxide incubated with yeast fRMsr and DTT. FIG. 15D illustrates the specific activities of various Msrs for the reduction of triclabendazole sulfoxide (left to right): mouse MsrA in the presence of DTT as a reductant, mouse MsrA in the presence of the thioredoxin reducing system, mouse MsrB2 in the presence of DTT, and yeast fRMsr in the presence of DTT.
(§4) Another methylsulfinyl-containing drug, sulmazole, was tested as a substrate for Msrs. This drug is pharmacologically active as a cardiotonic agent and is a phosphodiesterase inhibitor. FIG. 16A details an HPLC analysis of sulmazole incubated with mouse MsrA and DTT. The peak of m/z 288.3 corresponds to the molecular weight of sulmazole and the peak of m/z 272.3 corresponds to the molecular weight of reduced form of sulmazole. FIG. 16B illustrates an HPLC analysis of sulmazole incubated with mouse MsrB2 and DTT. FIG. 16C provides an HPLC analysis of sulmazole incubated with yeast fRMsr and DTT. FIG. 16D details the specific activities of various Msrs for the reduction of sulmazole (left to right): mouse MsrA in the presence of DTT as a reductant, mouse MsrA in the presence of the thioredoxin reducing system, mouse MsrB2 in the presence of DTT, and yeast fRMsr in the presence of DTT.
DMSO, which is used as a preservative for stem cells, solvent for drugs, and a drug itself with anti-inflammatory and free radical scavenging properties, was studied for its reduction by Msrs. FIG. 17A details a GC analysis of DMSO incubated with mouse MsrA and DTT. […]

mouse MsrB2 = mouse MsrB2 (Mus musculus, UniProt Q78J03); assay: Reduction of methylsulfinyl compounds by mouse MsrB2 (HPLC/GC analysis); format: biochemical; details: in the presence of DTT
Experimental: as §1, §2, §3
as §4, with “FIG. 16D details the specific activities of various Msrs for the reduction of sulmazole (left to right): mouse MsrA in the presence of DTT as a reductant, mouse MsrA in the presence of the thioredoxin reducing system, mouse MsrB2 in the presence of DTT, and yeast fRMsr in the presence of DTT.” left out

yeast fRMsr = target: T2, yeast fRMsr (Saccharomyces cerevisiae, UniProt P36088); assay: Reduction of methylsulfinyl drugs by yeast fRMsr (HPLC analysis); format: biochemical; details: in the presence of DTT
T2 construct: His-tag (C); made in house; host or cells: E. coli BL21 (DE3), pET21b
T2 sequence (P36088 1-180): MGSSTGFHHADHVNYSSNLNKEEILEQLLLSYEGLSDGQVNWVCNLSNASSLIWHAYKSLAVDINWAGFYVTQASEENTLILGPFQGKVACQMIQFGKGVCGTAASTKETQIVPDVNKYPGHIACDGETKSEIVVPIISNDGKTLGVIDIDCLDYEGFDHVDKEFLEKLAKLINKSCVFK
Experimental: as §2
The reduction of triclabendazole sulfoxide was examined. This compound has been used to treat liver fluke, Fasciola hepatica and Fasciola gigantica, in sheep, goat, and cattle as a form of triclabendazole. Triclabendazole can be metabolized to several different forms including triclabendazole sulfoxide, which is an oxidized form of methylsulfide group, in biological systems. FIG. 15A provides an HPLC analysis of triclabendazole sulfoxide incubated with mouse MsrA and DTT. […]

mouse MsrB1-Cys = target: T3, mouse MsrB1-Cys (Mus musculus, UniProt Q9JLC3, U95C); assay: Reduction of DMSO by mouse MsrB1-Cys (GC analysis); format: biochemical; details: in the presence of DTT; selenocysteine replaced with cysteine
T3 sequence (Q9JLC3 1-116 U95C): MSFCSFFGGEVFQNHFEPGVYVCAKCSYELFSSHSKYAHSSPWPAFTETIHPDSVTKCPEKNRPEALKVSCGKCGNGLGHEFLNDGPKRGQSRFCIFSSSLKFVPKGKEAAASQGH
Experimental: DMSO, which is used as a preservative for stem cells, solvent for drugs, and a drug itself with anti-inflammatory and free radical scavenging properties, was studied for its reduction by Msrs. FIG. 17A details a GC analysis of DMSO incubated with mouse MsrA and DTT. FIG. 17B provides a GC analysis of DMSO incubated with mouse MsrB2 and DTT. FIG. 17C illustrates a GC analysis of DMSO incubated with mouse MsrB1-Cys and DTT. FIG. 17D provides specific activities of various Msrs for the reduction of DMSO (left to right): mouse MsrA in the presence of DTT as a reductant, mouse MsrB2 in the presence of DTT, and mouse MsrB1-Cys in the presence of DTT.

SK-Hep1 cells = assay: Growth of SK-Hep1 cells in media supplemented or not with sodium selenite; format: cell-based, human; details: 100 nM; FBS-supplemented and insulin/transferrin media
Experimental: Growth of SK-Hep1 cells was analyzed in modified DMEM media containing Met, Met-SO, Met-RO, or Met-RSO (0.1 mM of each amino acid) or with no addition of these compounds. In addition, media were supplemented or not with 100 nM sodium selenite. Cells were analyzed at 0, 24, 48, and 72 hours. Another experiment involving SK-Hep1 cells was performed with cells grown in serum-free modified DMEM medium, containing insulin (5 μg/mL) and transferrin (10 μg/mL), Met or Met-RSO (0.1 mM of each amino acid) and 100 nM sodium selenite (or with no addition of this compound), and separately in 10% dialyzed FBS-containing DMEM medium containing 0.1 mM Met with 100 nM sodium selenite (or not). Cells were analyzed at 0, 24, 48, and 72 hours. Cell growth assays were carried out as described below.
Proliferation Assay—Cell growth was quantified using colorimetric MTS assay (Promega). Cells in regular DMEM medium were plated in 96-well plates at 5×10^3 cells/well, washed with PBS, and specialized DMEM media were added that contained Met, Met-SO, Met-RO, or Met-RSO 24 hours after plating. […] After 90 minutes of incubation at 37° C. in the atmosphere of 5% CO2, cell proliferation was measured at indicated time periods from 0 to 96 hours at 450 nm in a plate reader. […]

[1] = thioredoxin system as reductant

Sequence of mouse MsrB2 (Q78J03 43-175): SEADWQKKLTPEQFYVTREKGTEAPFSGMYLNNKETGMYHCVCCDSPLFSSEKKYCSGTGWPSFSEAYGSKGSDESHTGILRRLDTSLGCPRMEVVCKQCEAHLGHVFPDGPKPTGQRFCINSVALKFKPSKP

## CN1CCCCC1CCN1c2ccccc2Sc2ccc([S+](C)[O-])cc21 (stereo not drawn) [Mesoridazine]
Mouse MsrA; DTT as a reductant
  Reduction by mouse MsrA: reduced to thioridazine
Mouse MsrA; [1]
  Reduction by mouse MsrA: reduced to thioridazine
Mouse MsrB2
  Reduction by mouse MsrB2: no activity was observed
Yeast fRMsr
  Reduction by yeast fRMsr: no activity was observed

## Dimethylsulfoxide [DMSO]
Mouse MsrA; DTT as a reductant
  Reduction by mouse MsrA: can be reduced
Mouse MsrB2
  Reduction by mouse MsrB2: very inefficient substrate
Mouse MsrB1-Cys
  Reduction by mouse MsrB1-Cys: very inefficient substrate

## O=[Se]([O-])[O-].[Na+].[Na+] [sodium selenite]
SK-Hep1 cells
  Influence on cell growth on Met and Met sulfoxide: did not influence cell growth

## COc1cc([S+](C)[O-])ccc1-c1nc2ncccc2[nH]1 (stereo not drawn) [sulmazole, Sulmazole]
Mouse MsrA; DTT as a reductant
  Reduction by mouse MsrA: specifically reduced
Mouse MsrA; [1]
  Reduction by mouse MsrA: specifically reduced
Mouse MsrB2
  Reduction by mouse MsrB2: not reduced
Yeast fRMsr
  Reduction by yeast fRMsr: not reduced
